Reference: PMC3481288 (The Journal of Biological Chemistry, 2012)

Target: T1, PBP2ALGA (Staphylococcus aureus, UniProt F4NA57)
T1 sequence (F4NA57 23-665 limits assumed): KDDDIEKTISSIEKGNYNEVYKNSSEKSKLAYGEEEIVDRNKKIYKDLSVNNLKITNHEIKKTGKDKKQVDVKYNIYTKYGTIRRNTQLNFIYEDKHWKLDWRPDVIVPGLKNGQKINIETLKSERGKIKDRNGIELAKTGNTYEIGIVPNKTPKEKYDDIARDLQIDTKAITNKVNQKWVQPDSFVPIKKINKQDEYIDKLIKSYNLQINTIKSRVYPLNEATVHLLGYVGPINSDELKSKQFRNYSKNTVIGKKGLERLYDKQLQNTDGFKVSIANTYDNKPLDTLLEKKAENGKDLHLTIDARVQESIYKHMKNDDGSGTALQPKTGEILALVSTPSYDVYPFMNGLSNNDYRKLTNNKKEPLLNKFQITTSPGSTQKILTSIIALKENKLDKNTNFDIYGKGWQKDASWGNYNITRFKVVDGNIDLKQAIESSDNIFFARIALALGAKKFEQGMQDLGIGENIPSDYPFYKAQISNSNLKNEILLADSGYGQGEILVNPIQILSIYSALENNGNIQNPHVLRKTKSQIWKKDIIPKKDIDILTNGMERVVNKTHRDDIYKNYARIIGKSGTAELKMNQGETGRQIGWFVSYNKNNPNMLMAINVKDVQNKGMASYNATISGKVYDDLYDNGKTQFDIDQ
Experiment: Bocillin FL competition, SDS-PAGE fluorescence
Format: binding

IC50 [µM] | SMILES
501 | CO[C@@]1(NC(=O)Cc2cccs2)C(=O)N2C(C(=O)O)=C(COC(N)=O)CS[C@@H]21 [cefoxitin]
212 | Cc1onc(-c2ccccc2)c1C(=O)N[C@@H]1C(=O)N2[C@@H]1SC(C)(C)[C@@H]2C(=O)O [oxacillin]
